# Tests used:
# [1] = Solubility in solvents and water; format: physicochemical
# [2] = Emission and AIE properties in solvent mixtures; format: physicochemical
# Text: FIG. 2 depicts (A) Normalized absorption spectra of DCTB, DCPH and DNTPH in DMSO solution; (B) Normalized fluorescence (PL) spectra of DCTB, DCPH and DNTPH in aggregates; (C) Plot of the changes in fluorescence intensity with different water fraction (fw, in volume percentage, vol %), where I0 and I are the maximal fluorescence intensity recorded before and after adding water into the THF solution of DCTB. (D) Plot of the changes in fluorescence intensity with different toluene fractions (ft, in volume percentage, vol %), where I0 and I are the maximal fluorescence intensity recorded before and after adding toluene into the DMSO solution of DCPH and DNTPH respectively. [AIE dyes]=10 μM.
# DCTB and DCPH were synthesized and their structure-activity relationship was investigated (FIG. 1).
# However, to achieve a more obvious emission enhancement with low background signals, the TICT and AIE properties can be further modified. […] DNTPH was non-emissive in aqueous solution, and its NIR fluorescence at 683 nm was continuously intensified until the volume fraction of toluene (ft) […] was increased to about 40-fold (FIG. 2D). In addition, initial weedy fluorescence intensity of DNTPH in aqueous solution and the outstanding emission enhancement behavior in the aggregated state made it an ideal candidate for detecting protein fibrillogenesis, like Aβ aggregates.
# Aβ42 fibril = Aβ42 fibril (Homo sapiens, UniProt P05067); assay: Fluorescent response upon binding to Aβ42 fibrils in phosphate buffer; conditions: titrated with Aβ42 fibril in phosphate buffer; dye 1 μM
# Method: FIG. 4 depicts determination of the binding constant of DNTPH for Aβ42 aggregates. (A) Plot of the PL intensity as a function of the concentration of DNTPH in the presence of Aβ42 aggregates (3 μM) in PBS solution (pH=7.4); (B)Response time of DNTPH binding to Aβ42 aggregates. […] (D) Ultrahigh S/N ratio of DNTPH toward Aβ42 aggregates compared to the background signals in PBS and that towards BSA.
# It was investigated whether DNTPH has a fluorescent response upon binding to Aβ aggregates. When DNTPH was titrated with the Aβ42 fibril in phosphate buffer, a strong and progressive increase (up to about 18-fold) in red fluorescence intensity concomitant was observed, which took ˜30 min to reach a plateau. Without wishing to be bound by theory, it is believed that DNTPH is capable of binding hydrophobic surfaces in aggregated amyloid fibrils with the help of the binding unit, resulting in the decrease of conformational freedom and rotational restriction. […] That is because these three probes show high background signals, which results in low S/N ratio even with a decent fluorescent response to testing objects.
# PC12 cell = assay: MTT cytotoxicity assay in PC12 cells; format: cell-based
# Method: FIG. 7 depicts (A) Cytotoxicity towards […] PC-12 cells of Aβ monomer under 24 h and 48 h incubation. (B) Cytotoxicity of Aβ fibrils under 24 h and 48 h incubation. […] (D) Cell viability of different concentrations of DNTPH towards PC-12 cells under 24 h and 48 h incubation.
# Chain of Aβ42 fibril (P05067 672-713 limits assumed): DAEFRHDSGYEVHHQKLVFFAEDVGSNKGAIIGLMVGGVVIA
compound,measurement,setting,value
CCN(CC)c1ccc2cc(C=Cc3cc[n+](CCO)cc3)c(=O)oc2c1.[Br-] [DCPH],solubility,[1],more soluble in water and polar solvent
same,emission maximum,[2],690 nm
same,PL intensity enhancement in aggregates compared with DMSO solution,"[2]; DMSO/toluene mixtures, 99% toluene fraction (ft)",about 2 fold
CCN(CC)c1ccc2cc(C=C(C#N)c3nc4ccccc4s3)c(=O)oc2c1 [DCTB],solubility,[1],soluble in THF but aggregated in water
same,emission maximum,[2],601 nm
same,"AIE effect, fluorescence intensity increase","[2]; THF/water, water fraction (fw) 70%",less than 2 fold
"Cc1ccc2c(c1)sc(-c1ccc(N(C)C)cc1)[n+]2C.[Cl-] [ThT, thioflavin T]",increase in fluorescence intensity (fluorescent response) to Aβ42 fibril,Aβ42 fibril,5 fold
Aβ monomer: monomeric amyloid-β peptide,cell death,"PC12 cell; 20 μM, 48 h incubation",50%
same,cytotoxicity,"PC12 cell; 5-20 μM, less than 24 h of exposure",No significant cytotoxicity

# Reference: patent US12433962B2, “Probes for imaging b-amyloid and inhibition of β-amyloid aggregation” (The Hong Kong University of Science and Technology, priority 2021, dated 2025)
